Laboratory results from patent EP4656179A1, “COMPOSITION CONTAINING STREPTOCOCCUS SP. STRAIN FOR PREVENTION, ALLEVIATION, OR TREATMENT OF SKIN DISEASES” (Cosmax, Inc., priority 2023, dated 2024).

Assays:
Assay type in all cases: cell-based, human
Conditions in all cases: HaCaT cells, IFN-γ 10 ng/mL; 1, 10, and 100 ppm; 24 hours; GAPDH as standard
[1] = system: CCL17; experiment: Marker gene expression in IFN-γ atopic dermatitis cell model (HaCaT), real-time PCR: CCL17
Description: (§1) To verify the effect of the Cyclo(Gly-Pro) of alleviating atopic dermatitis, an in vitro efficacy evaluation was conducted.
(§2) First, human keratinocytes, HaCaT cells, were purchased from the American Type Culture Collection (ATCC; Manassas, VA, USA) and cultured in DMEM (HyClone, Logan, UT, USA) supplemented with 10 % FBS (HyClone) and 1 % antibiotic-antimycotic solution (Welgene, Daegu, Korea). The cells were maintained at 37 °C in a 5 % CO2 incubator. After isolating the cells using trypsinization, 4 x 10^5 cells were added to each well of a 6-well plate. After 1 day of cell attachment, the culture was replaced with a serum-free medium and treated with IFN-γ (Sigma Aldrich, St. St. Louis, MO, USA) at a concentration of 10 ng/mL to induce an environment similar to atopic dermatitis. As a positive control group, 1 µM dexamethasone (Sigma Aldrich) was used. As experimental groups, the cells were treated with Cyclo(Gly-Pro) (Biosynth Ltd, Berkshire, UK) at concentrations of 1, 10, and 100 ppm. […]
(§3) The cDNA amplification was performed by 40 cycles of amplification, wherein each cycle has the following conditions: 50 °C for 2 minutes, 95 °C for 10 minutes, 40 cycles of 95°C for 10 seconds, and 60°C for 1 minute. GAPDH was used as an ISTD material, and the mRNA expression levels were expressed as relative values compared to the negative control group. […]

[2] = system: CCL22; experiment: Marker gene expression in IFN-γ atopic dermatitis cell model (HaCaT), real-time PCR: CCL22
Description: as §1, §2, §3

[3] = system: IL-13; experiment: Marker gene expression in IFN-γ atopic dermatitis cell model (HaCaT), real-time PCR: IL-13
Description: as §1, §2, §3

[4] = system: IL-22; experiment: Marker gene expression in IFN-γ atopic dermatitis cell model (HaCaT), real-time PCR: IL-22
Description: as §1, §2, §3

[5] = system: sIL-2R; experiment: Marker gene expression in IFN-γ atopic dermatitis cell model (HaCaT), real-time PCR: sIL-2R
Description: as §1, §2, §3

[6] = system: IL-31; experiment: Marker gene expression in IFN-γ atopic dermatitis cell model (HaCaT), real-time PCR: IL-31
Description: as §1, §2, §3

[7] = system: filaggrin (FLG); experiment: Marker gene expression in IFN-γ atopic dermatitis cell model (HaCaT), real-time PCR: filaggrin
Description: as §1, §2, §3

O=C1NCC(=O)N2CCCC12 (stereo not shown) [Cyclo(Gly-Pro), hexahydropyrrolo[1,2-a]pyrazine-1,4-dione]
relative expression levels of CCL17 [1]: decreased | relative expression levels of CCL22 [2]: decreased | relative expression levels of IL-13 [3]: decreased | relative expression levels of IL-22 [4]: decreased | relative expression levels of sIL-2R [5]: decreased | relative expression levels of IL-31 [6]: decreased | relative expression levels of filaggrin (FLG) [7]: increased
